{"source": "patent US11065275B2", "about": "“Cross-linking agents and associated methods” (University of Utah Research Foundation, priority 2016, dated 2021)", "key": {"[1]": {"system": "lysyl oxidase (LOX)", "details": "0.0016 mg/mL CuSO4 in BSS vs BSS control", "method": "As a parallel assay, we added 500 uM aminopropionitrile (BAPN) which can diminish LOX activity completely. The fluorescence of oxidized Amplex red was recorded every 10 minutes using fluorescence plate reader."}, "[2]": {"system": "Human Keratoconus Cornea", "details": "corneas treated 1 week with 0.0016 mg/ml CuSO4 vs untreated, HPLC", "method": "Each Human Keratoconus Cornea was bisected. One half was treated with 0.0016 mg/ml CuSo4 in Optisol solution for 1 week and other half was left untreated. After one week each cornea was kept in negative 80° C. for future analysis.\nThe cornea samples were washed with PBS pH 7.4 and powdered in liquid nitrogen and pulverized with a Freezer Mill. Cornea samples were demineralized with 0.5 M EDTA in 0.05 M Tris buffer, pH 7.4, for 48 h at 4° C. The insoluble fraction was washed twice with distilled water by centrifugation at 5000 g at […] for 20 min and lyophilized. The lyophilized sample was hydrolyzed with constantly boiling redistilled 6 N HCl in vacuo for 24 h at 110° C. The hydrolysate was neutralized with 2.5 N NaOH and dissolved in distilled water. Analyses were performed for Lysinonorleucine (LNL) and Histidinohydroxylysinonorleucine (HHL) separately by HPLC.\nAmino acid analysis is an important application area in protein chemistry and food analysis. Many different applications exist in this field. Automated pre-column derivatization followed by reverse phase LC has become a useful procedure for efficient analysis, since it is an easy and simple to use technique. An Agilent 1290 Infinity LC System was used with automated pre-column derivatization for fast and sensitive analysis of Lysinonorleucine (LNL). The column used for this method is Agilent ZORBAX Eclipse Plus RRHD C18 (3.0 mm×50 mm, 1.8 μm) and Mobile phase consisted of Solvent A: 10 mM disodium phosphate+10 mM sodium tetraborate pH 8.2 and Solvent B: ACN/MeOH/H2O (45:45:10)\nTo […] of the protein hydrolysate sample (less than 3 mM as the total amino acid concentration), 50 μl of 1.5 mM Ne-methyl-L-lysine hydrochlo ide (Mly) in 0.26 M borate buffer, pH 9.5, and 50 μl of acetone were added in a 1.5-ml reaction vial. Then 25 μl of FMOC-Cl reagent (6 mM FMOC-Cl in acetone) was added and the mixture was allowed to react for 2 min at room temperature. The reaction mixture was extracted twice with […] of pentane to remove excess FMOC-Cl reagent. The aqueous phase was subjected to chromatography.\nCornea cross-linking is tissue specific. The predominant cross-links generated in the human cornea are lysinonorleucine (LNL). LNL are the building blocks for subsequent multivalent cross-links such as the histidinyl-hydroxylysinonorleucine (HHL). Normal and keratoconic human corneas were treated for 1 week with 0.0016 mg/ml CuSO4. Then, an HPLC analysis was performed to measure levels of LNL (FIGS. 2A-2C) and HHL (FIGS. 3A-3C)."}, "[3]": {"system": "human cadaver corneas and rabbit corneas", "method": "Cornea radial strain measurements were performed on human cadaver corneas and on rabbit corneas. Human cadaver corneas (n=2 pairs) were cultured as previously mentioned in Example 1. The treated group was immersed in 0.0016 mg/ml CuSO4 for 2 weeks. The samples also contained a small portion of sclera at both ends. Mineral oil was applied on the surface of the sclera-cornea-sclera strip to minimize tissue dehydration. Rabbit corneas were divided into 4 groups. Two groups were treatment groups receiving either CuSO4 0.0025 mg/ml three times per day or CuSO4 0.0025 mg/ml once per day. Two groups served as control receiving only BSS.\nThe sample was coupled between a motor and a transducer that applied a controlled pressure from 5-30 mmHg and measured the resultant radial strain. The sample length between the two gripping jaws was approximately 10 mm. Sample geometric information, including width and thickness, was input into the Rheometrics System Analyzer (RSA) control panel. Sample thickness was measured by an ultrasound pachymeter (DGH 550 Pa-chette2; DGH Technology, Exton, Pa.)."}, "[4]": {"system": "cornea of New Zealand white rabbits", "details": "0.0025 mg/ml once or three times per day, 0.025 mg/ml once per day; weekly for 5 weeks; mean K and at 3 mm", "method": "Copper sulfate (CuSO4) at 0.0025 mg/ml was administered to New Zealand white rabbits at a dose of once per day and three times per day. Additionally, a high concentration sample of 0.025 mg/ml was administered to New Zealand with rabbits once per day during the treatment period. Three different controls were administered either no drops, BSS, or artificial tears. Each of the 6 groups included 6 test subjects each. Topography images were taken before treatment and weekly for 5 weeks. Diopter measurements were the mean K values and at 3 mm. These values were compared to diopter measurements in laser cross-linked corneas after 1 month and 1 year."}, "[5]": {"system": "rabbits", "details": "0.0025 mg/ml TID or QD", "method": "Copper sulfate (CuSO4) solution was prepared at a concentration of 0.0025 mg/ml and administered three times a day (TID) or once a day (QD) to rabbits. An anterior segment evaluation was performed with slit-lamp biomicroscopy and Heidelberg Spectralis anterior segment optical coherence tomography (AS-OCT). Two rabbits (n=4 eyes) were sacrificed at each of day 1, week 1, week 4, and week 6 for copper levels in eye tissues and compared to control (no drops) rabbits. Aqueous humor, vitreous, retina, cornea, lens, and blood samples were analyzed for copper ions using inductively coupled plasma mass spectrometry (ICP-MS).\nRabbits (n=2) were sacrificed after 42 days by intravenous injection of 0.3 ml/kg euthanasia solution and the eyes were enucleated for histological evaluations and reading for signs of inflammation, tissue damage, scarring and fibrosis. The anterior section of the eyes were fixed in 10% formaldehyde-glutaraldehyde solution, dehydrated in a graded series of alcohol, embedded in paraffin, and sectioned with a microtome. The sections were stained with appropriate staining (hematoxylin and eosin and Masson Trichrome)."}}, "note": "Where two headings read alike, the source gives them in different places.", "data": [{"smiles": "O=S(=O)([O-])[O-].[Cu+2]", "note": "[CuSO4, copper (II) sulfate]", "values": [{"measurement": "lox enzyme activity", "setting": "[1]; keratoconus corneal fibroblast cells", "result": "dramatically increased"}, {"measurement": "lox enzyme activity", "setting": "[1]; normal corneal fibroblast cells", "result": "dramatically increased"}, {"measurement": "HHL (histidinyl-hydroxylysinonorleucine) cross-link levels", "setting": "[2]", "result": "HHL cross-links are also observed"}, {"measurement": "LNL (lysinonorleucine) cross-link levels", "setting": "[2]", "result": "LNL cross-links were observed"}, {"measurement": "HHL (histidinyl-hydroxylysinonorleucine) cross-link levels", "setting": "[2]; listed as copper", "result": "significant increase"}, {"measurement": "LNL (lysinonorleucine) cross-link levels", "setting": "[2]; listed as copper", "result": "significant increase"}, {"measurement": "corneal stiffness", "setting": "[3]; after copper sulfate treatment vs untreated (FIG. 4)", "result": "marked increase"}, {"measurement": "average peak radial strain induced by ocular pulse, treated vs untreated corneas", "setting": "[3]; at 20 mmHg", "result": "about 1.5 times lower"}, {"measurement": "corneal biomechanics", "setting": "[3]; compared with laser cross-linking (FIG. 5)", "result": "comparable to that seen with laser cross-linking"}, {"measurement": "increase in corneal strength", "setting": "[3]; from radial strain at 20 mmHg, treated vs untreated", "result": "~50", "unit": "%"}, {"measurement": "decrease in diopter measurements vs control groups", "setting": "[4]", "result": "greater decrease"}, {"measurement": "corneal haze", "setting": "[5]", "result": "no observed corneal haze"}, {"measurement": "effect on electroretinography (ERG) measurements", "setting": "[5]", "result": "no effect"}, {"measurement": "toxicity in dissected eye tissues", "setting": "[5]; histology after 6 weeks", "result": "no observed toxicity"}]}]}
